Test results taken from patent publication US8529951B1, “Elastogenic cues and methods for using same” (priority 2007, dated 2013).

Assays:
RASMCs [1] = experiment: Collagen synthesis by RASMCs (hydroxy-proline assay); format: cell-based, rat
RASMCs [2] = experiment: Matrix elastin synthesis by RASMCs (Fastin assay; alkali-soluble and alkali-insoluble fractions); conditions: for increase of total matrix production: Example 3, growth factor only (no HA), 3 weeks
lysyl oxidase (LOX) [3] = experiment: LOX protein synthesis (Western blot of spent medium); conditions: Example 3, 16 day culture, alone or together with HA fragments
RASMCs [4] = experiment: SDS-PAGE/Western blot of soluble tropoelastin in spent medium; format: cell-based, rat; conditions: Example 1, n=3/case
Method: SDS-PAGE and Western Blot were performed to confirm the observed biochemical trends for synthesis of soluble tropoelastin. Briefly, the aliquots of spent medium removed and pooled at bi-weekly intervals over the 21-day culture period, were lyophilized, assayed for protein content using a DC protein assay kit (Biorad Corporation, Hercules, Calif.), and subjected to SDS-PAGE and Western Blot. Optimized sample amounts (20 μg) were appropriately mixed and boiled (100° C., 5 min) with a loading buffer (2% w/v Sodium Dodecyl Sulfate (SDS), 62 mM Trizma base, 10% v/v Glycerol, 600 mM dithiothreitol), flash-spun in an ultracentrifuge (500 g, 2 min) and loaded under reduced conditions onto 10% w/v polyacrylamide gels (Novex Tris-Glycine gels, Invitrogen Corporation, Carlsbad, Calif.), with prestained protein standards ranging between 10-190 kDa (Benchmark Pre-stained Protein Ladder, Invitrogen) and western blot standards ranging between 20-220 kDa (MagicMark XP Western Protein Standards, Invitrogen). […] Following electrophoresis, the protein bands were transferred onto a PVDF pre-wetted membrane, developed, imaged using trans-white light, and quantified using the Alpha Innotech imaging software (Alpha Ease FC; Chemi-imager 4400) as described previously. […]

RASMCs [5] = experiment: Elastase degradation of elastin isolated from cultured cell layers; format: cell-based, rat; conditions: 8-hour enzymatic digestion
Method: Enzymatic degradation studies were performed to compare the impact of HA oligomer exposure and their mode of delivery on elastin matrix quality, particularly their resistance to enzymatic breakdown. Elastin matrices isolated by alkali digestion of aortae explanted from adult Sprague-Dawley rats served as additional controls for these studies. Briefly, adult rat aortal segments were removed from euthanized rats, from arch to the celiac axis, under sterile conditions, and spliced lengthwise in petri dishes containing cold phosphate-buffered saline (PBS) containing 2 mM Ca^2+. These spliced sections were then transferred to a dish containing 1-2 ml of collagenase (2 mg/ml; Worthington, Lakewood, N.J.) and incubated for 10 minutes at 37° C. DMEM:F12 media was then added to these collagenase treated samples and mixed well with gentle pipetting. Isolated aortal segments were further chopped crosswise into […] pieces and transferred using fine needles onto sterile petri dishes and stored in PBS at 4° C. until further use. Cell layers were scraped off the culture wells, pelleted by centrifugation (2000 g, 15 min), and stored at −20° C. in PBS until further use (n=9/case).
HA tetramers as described above in Example 1 were tethered onto 4-well glass chamber slides (Nalge Nunc International, Naperville, Ill.). […]

RASMCs [6] = experiment: RASMC proliferation (fluorometric DNA assay of cell layers); format: cell-based, rat
Method: At 1 and 21 days of culture, the DNA content of the cell layers was measured to determine the proliferation of SMCs and to normalize the measured amounts of synthesized matrix (elastin, collagen). The fluorometric DNA assay, described previously by Labarca and Paigen (Labarca C, Paigen K. A simple, rapid, and sensitive DNA assay procedure. Anal Biochem. 1980; 102:344-52), was performed on cell layers processed as described previously (Joddar B, Ramamurthi A. Fragment size- and dose-specific effects of hyaluronan on matrix synthesis by vascular smooth muscle cells. Biomaterials. 2006; 27(15): 2994-3004). Actual cell counts were then calculated on the basis of an estimated 6 pg DNA/cell.

RASMCs [7] = experiment: Tropoelastin synthesis by RASMCs (Fastin assay of pooled spent medium); format: cell-based, rat; conditions: Example 1, 21-day culture, n=3
RASMCs [8] = experiment: Desmosine content of cell-matrix layers (ELISA); format: cell-based, rat; conditions: Example 1
Method: Desmosine content of the cell-matrix layers was determined in expectation that it would correlate with the amounts of crosslinked elastin and serve as an indirect confirmation of the earlier observed biochemical trends, with regard to synthesis of matrix elastin. To assess desmosine content, compounded test and control cell pellets were digested with collagenase type VII (Sigma; 12 h, 37° C.) and re-centrifuged (3000 g, 10 min, 4° C.) to obtain a supernatant (SI) and a pellet. This pellet was digested with pancreatic porcine elastase type III (Sigma; 12 h, 37° C.) to obtain a soluble peptide fraction (SII). Fractions SI and SII were pooled together, acid-hydrolyzed with 6 N HCl (110° C., 16 h), dried under a stream of inert N2, re-constituted in water and the desmosine content determined by ELISA as previously done.

lysyl oxidase (LOX) [9] = target: T1, lysyl oxidase (LOX) (Rattus norvegicus, UniProt P16636); experiment: LOX functional activity (fluorometric Amplex red assay of spent medium); format: cell-based; conditions: 21 days
T1 construct: spent culture medium pooled at day 21 of a culture was assayed; endogenous in cells; host or cells: adult rat aortic smooth muscle cells (RASMCs; Cell Applications), spent culture medium
T1 sequence (P16636 163-411): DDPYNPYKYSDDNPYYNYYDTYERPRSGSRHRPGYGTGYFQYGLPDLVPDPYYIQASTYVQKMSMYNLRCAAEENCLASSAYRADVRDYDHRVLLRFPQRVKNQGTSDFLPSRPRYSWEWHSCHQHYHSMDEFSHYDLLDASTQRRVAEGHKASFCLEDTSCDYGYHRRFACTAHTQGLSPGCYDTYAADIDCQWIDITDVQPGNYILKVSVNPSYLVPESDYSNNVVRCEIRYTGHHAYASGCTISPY
Method: To determine LOX functional activity, spent culture medium pooled at day 21 of a culture was assayed using a fluorometric assay based on generation of H2O2 when LOX acts on a synthetic substrate. H2O2 was detected using an Amplex® red kit (Molecular Probes, OR,). The fluorescence intensities were recorded with excitation and emission wavelengths at 560 nm and 590 nm, respectively

TGF-β: transforming growth factor, added at 1 ng/ml
collagen production (RASMCs [1]; Example 3, in inverse correlation to the added HA fragment size): inhibit
crosslinking of soluble tropoelastin into matrix elastin (RASMCs [2]; Example 3): significantly enhance
increase of total matrix production (RASMCs [2]): 270±12%
LOX protein synthesis (lysyl oxidase (LOX) [3]): enhanced

CC(=O)N[C@H]1[C@H](O[C@H]2[C@H](O)[C@@H](O)[C@H](O[C@H]3[C@H](O)[C@@H](CO)OC(O)[C@@H]3NC(C)=O)O[C@@H]2C(=O)O)O[C@H](CO)[C@@H](O)[C@@H]1O[C@@H]1O[C@H](C(=O)O)[C@@H](O)[C@H](O)[C@H]1O (stereo partly drawn) [pure HA 4-mer]
normalized tropoelastin band intensity (pixel intensity per ng DNA) (RASMCs [4]): 0.15±0
collagen production (DNA normalized) relative to respective controls (RASMCs [1]; Example 1, 21-day culture): 2.0±0.1 times
% weight loss of cell pellet elastin on elastase digestion (RASMCs [5]; exogenous HA 4 mers): 35%
% weight loss of cell pellet elastin on elastase digestion (RASMCs [5]; surface-tethered HA 4 mers): 50%
proliferation, times number at 1 day (RASMCs [6]; Example 1, 21 days of culture, n=3): 1.66±0.05 times number at 1 day
DNA normalized matrix elastin output relative to controls (RASMCs [2]; Example 1, 21-day culture): 2.7±0.3 times
tropoelastin output (DNA normalized) relative to respective control cultures (RASMCs [7]): 1.63±0.06 times
desmosine amount normalized to DNA and to non-HA controls (RASMCs [8]): 4.76±0.10

O=S(=O)([O-])[O-].[Na+].[Na+] [sodium sulfate, reference compound]
total collagen output per ng DNA vs. non-additive controls (RASMCs [1]; Example 4, 0.01 M alone): 1.1±0.13 fold
total collagen output per ng DNA vs. non-additive controls (RASMCs [1]; Example 4, 0.1 M alone): 0.94±0.15 fold
RASMC proliferation vs. controls (RASMCs [6]; Example 4, alone, irrespective of the added dose (0.01 and 0.1 M)): no effect

O=S(=O)([O-])[O-].[Cu+2] [copper sulfate]
total collagen output per ng DNA vs. non-additive controls (RASMCs [1]; Example 4, 0.01 M alone): 0.5±0.04 fold
collagen synthesis vs. controls (RASMCs [1]; Example 4, 0.01 M copper sulfate in the presence of oligomers, VLMW and HMW HA): consistently suppressed
total collagen output per ng DNA vs. non-additive controls (RASMCs [1]; Example 4, 0.1 M alone): 4.1±0.4 fold
cell proliferation (RASMCs [6]; Example 4, 0.01 M copper sulfate and HA fragments): stimulated
LOX activity vs. controls (lysyl oxidase (LOX) [9]; Example 4, 0.01 M alone): 1.4±0.2
basal LOX functional activity (lysyl oxidase (LOX) [9]; Example 4, 0.1 M alone or concurrent with HA fragments (except VLMW HA)): no significant effect

IGF-1: insulin-like growth factor, added at 500 ng/ml
inhibition of cell proliferation (RASMCs [6]; Example 3, 21 days, all cases except in the presence of oligomers and HMWHA): 50%
elastin matrix production compared to control (RASMCs [2]; Example 3, IGF-1 only with no HA): did not upregulate
increase of total matrix production (RASMCs [2]): 150±20%
